≈ marks a conversion by molar mass, not a printed value. Where two headings read alike, the source gives them in different places.
Tests used:
Listeria monocytogenes [1] = details: for colony formation of bacterial ghosts plated on BHI agar media: MIC
Procedure: Specifically, a BHI liquid medium was inoculated with Listeria, and incubated for 72 hours. After incubation, centrifugation was performed at 10,000 g for 10 minutes to obtain the cultured Listeria. […] Listeria was obtained at 15, 30, 45, 60 and 90 minutes after the beginning of culture and the lysis rate was measured.

Listeria monocytogenes [2] = details: 18 hours
Listeria monocytogenes [3] = experiment: microbe, parasite or virus in culture; details: 18 h, read-out: minimum inhibitory concentration (MIC)
Procedure: (§1) Specifically, Listeria monocytogenes, a gram-positive bacterium, was cultured in a brain-heart infusion (BHI) medium at 7° C. and 200 rpm under shaking conditions overnight, and then the degree of bacterial growth was determined by measuring optical density at 600 nm using a Biochrom Libra S22 spectrophotometer.

Listeria monocytogenes [4] = details: BHI liquid medium, 10^6 CFU/ml, 37° C., 18 hours, optical density at 600 nm
Procedure: as §1

[5] = treated with 6.25 mg/ml (MIC), plated without dilution, 37° C.

Row | Compound | colony formation of bacterial ghosts plated on BHI agar media (Listeria monocytogenes [1]; ghosts prepared from 15 minutes after treatment) | lysis rate of gram-positive bacteria (Listeria monocytogenes [1]; at about 15 minutes after the MIC has been applied) [%] | colony formation on BHI agar medium (Listeria monocytogenes [2]; treated with 3.125 mg/ml, diluted to a dilution factor of 1/10, 37° C.) | colony formation on BHI agar medium (Listeria monocytogenes [2]; [5]) | MIC (Listeria monocytogenes [3]) [µg/mL] | time to formation of bacterial ghosts after treatment (Listeria monocytogenes [1]; MIC 6.25 mg/ml, 37° C., 10^6 CFU/ml Listeria in PBS) | colony formation of bacterial ghosts plated on BHI agar media (Listeria monocytogenes [1]; ghosts prepared from 10 minutes after treatment) | minimum inhibitory concentration (MIC) (Listeria monocytogenes [4]) [µg/mL] | colony formation on BHI agar medium (Listeria monocytogenes [2]; treated with 3.125 mg/ml, plated without dilution, 37° C.)
1 | Cl [hydrochloric acid] | colonies were not formed | 100 | tens of colonies were also formed | no viable colony was formed | 6250 (≈ 171 mM) |  |  |  | 
2 | [Na+].[OH-] [sodium hydroxide] |  |  |  | no viable colony was formed |  | about 10 minutes | colonies were not formed | 6250 | thousands of colonies were formed

Source: US11066638B2 (priority 2016, dated 2021)
